Source: patent publication US20070049564A1 (Wyeth, priority 2005, published 2007)
≈ marks a conversion by molar mass, not a printed value. Like-named read-outs stand apart in the source and are kept apart here.

Experiments:
E. coli GC 2236 = test: MIC, broth microdilution; settings: Escherichia coli, GC2236, E. coli GC 2236
E. coli GC 2235 = test: MIC, broth microdilution; settings: Escherichia coli, GC2235, E. coli GC 2235
E. coli GC 2233 = test: MIC, broth microdilution; settings: Escherichia coli, GC2233, E. coli GC 2233
E. coli GC 2270 = test: MIC, broth microdilution; settings: Escherichia coli, GC2270, E. coli GC 2270
E. coli GC 2271 = test: MIC, broth microdilution; settings: Escherichia coli, GC2271, E. coli GC 2271
E. coli GC 3226 = test: MIC, broth microdilution; settings: Escherichia coli, GC3226, E. coli GC 3226
E. coli GC 1073 = test: MIC, broth microdilution; settings: Escherichia coli, GC1073, E. coli GC 1073
S. typhimurium GC 2172 = test: MIC, broth microdilution; settings: Salmonella enterica, TYPHIMURIUM, S. typhimurium GC 2172
S. aureus GC 1079 = test: MIC, broth microdilution; settings: Staphylococcus aureus, GC1079, S. aureus GC 1079
S. aureus GC 6335 = test: MIC, broth microdilution; settings: Staphylococcus aureus, GC6335, S. aureus GC 6335
S. aureus GC 6469 = test: MIC, broth microdilution; settings: Staphylococcus aureus, GC6469, S. aureus GC 6469
E. faecalis GC 4555 = test: MIC, broth microdilution; settings: Enterococcus faecalis, GC4555, E. faecalis GC 4555
E. faecalis GC 2265 = test: MIC, broth microdilution; settings: Enterococcus faecalis, GC2265, E. faecalis GC 2265
E. faecium GC 4556 = test: MIC, broth microdilution; settings: Enterococcus faecium, GC4556, E. faecium GC 4556
Experimental: Antimicrobial susceptibility testing. The in vitro activities of the antibiotics are determined by the broth microdilution method as recommended by the National Committee for Clinical Laboratory Standards (NCCLS) (1). Mueller-Hinton II broth (MHBII)(BBL Cockeysville, Md.) is the medium employed in the testing procedures. Microtiter plates containing serial dilutions of each antimicrobial agent are inoculated with each organism to yield the appropriate density (10^5 CFU/ml) in a 100 μl final volume. The plates are incubated for 18-22 hours at 35° C. in ambient air.
Representative compounds were first incubated in mouse serum for an hour prior to the in vitro testing against a panel of selected gram-positive and gram-negative bacteria strains. All compounds were also pre-incubated in water for an hour prior to testing as control. Representative compounds of Formula I were incubated in human serum prior to MIC determination.

E. faecium GC 2243 = test: MIC, broth microdilution; settings: Enterococcus faecium, GC2243, E. faecium GC 2243
S. pyogenes GC 4563 = test: MIC, broth microdilution; settings: Streptococcus pyogenes, GC4563, S. pyogenes GC 4563
S. agalactiae GC 4564 = test: MIC, broth microdilution; settings: Streptococcus agalactiae, GC4564, S. agalactiae GC 4564
c. albicans GC 3066 = test: MIC, broth microdilution
E. coli = test: Range of MIC for E. coli strains; settings: Escherichia coli
Staph. = test: Range of MIC for Staph. strains, including MRSA; settings: Staphylococcus aureus, MRSA

## CCCCN(CC(=O)Nc1cc(N(C)C)c2c(c1O)C(=O)C1=C(O)[C@]3(O)C(=O)C(C(N)=O)=C(O)[C@@H](N(C)C)C3CC1C2)C(=O)OCOC(=O)c1ccc(C)cc1 (stereo partly drawn) [Example 3, ({[(2-{[(7S,10aS)-9-(aminocarbonyl)-4,7-bis(dimethylamino)-1,8,10a,11-tetrahydroxy-10,12-dioxo-5,5a,6,6a,7,10,10a,12-octahydrotetracen-2-yl]amino}-2-oxoethyl)(butyl)amino]carbonyl}oxy)methyl 4-methylbenzoate]
E. coli GC 2236; Mouse Serum pre-incubation
  MIC: 1 µg/mL (≈ 1.29 µM)
E. coli GC 2236; Water pre-incubation
  MIC: > 64 µg/mL
E. coli GC 2235; Mouse Serum pre-incubation
  MIC: 1 µg/mL (≈ 1.29 µM)
E. coli GC 2235; Water pre-incubation
  MIC: > 64 µg/mL
E. coli GC 2233; Mouse Serum pre-incubation
  MIC: 1 µg/mL (≈ 1.29 µM)
E. coli GC 2233; Water pre-incubation
  MIC: > 64 µg/mL
E. coli GC 2270; Mouse Serum pre-incubation
  MIC: 1 µg/mL (≈ 1.29 µM)
E. coli GC 2270; Water pre-incubation
  MIC: > 64 µg/mL
E. coli GC 2271; Mouse Serum pre-incubation
  MIC: 1 µg/mL (≈ 1.29 µM)
E. coli GC 2271; Water pre-incubation
  MIC: > 64 µg/mL
E. coli GC 3226; Mouse Serum pre-incubation
  MIC: 2 µg/mL (≈ 2.57 µM)
E. coli GC 3226; Water pre-incubation
  MIC: > 64 µg/mL
E. coli GC 1073; Mouse Serum pre-incubation
  MIC: 2 µg/mL (≈ 2.57 µM)
E. coli GC 1073; Water pre-incubation
  MIC: > 64 µg/mL
S. typhimurium GC 2172; Mouse Serum pre-incubation
  MIC: 8 µg/mL (≈ 10.3 µM)
S. typhimurium GC 2172; Water pre-incubation
  MIC: > 64 µg/mL
S. aureus GC 1079; Mouse Serum pre-incubation
  MIC: 2 µg/mL (≈ 2.57 µM)
S. aureus GC 1079; Water pre-incubation
  MIC: 32 µg/mL (≈ 41.1 µM)
S. aureus GC 6335; Mouse Serum pre-incubation
  MIC: 2 µg/mL (≈ 2.57 µM)
S. aureus GC 6335; Water pre-incubation
  MIC: 8 µg/mL (≈ 10.3 µM)
S. aureus GC 6469; Mouse Serum pre-incubation
  MIC: 4 µg/mL (≈ 5.14 µM)
S. aureus GC 6469; Water pre-incubation
  MIC: 32 µg/mL (≈ 41.1 µM)
E. faecalis GC 4555; Mouse Serum pre-incubation
  MIC: 1 µg/mL (≈ 1.29 µM)
E. faecalis GC 4555; Water pre-incubation
  MIC: 8 µg/mL (≈ 10.3 µM)
E. faecalis GC 2265; Mouse Serum pre-incubation
  MIC: 2 µg/mL (≈ 2.57 µM)
E. faecalis GC 2265; Water pre-incubation
  MIC: 32 µg/mL (≈ 41.1 µM)
E. faecium GC 4556; Mouse Serum pre-incubation
  MIC: 2 µg/mL (≈ 2.57 µM)
E. faecium GC 4556; Water pre-incubation
  MIC: 16 µg/mL (≈ 20.6 µM)
E. faecium GC 2243; Mouse Serum pre-incubation
  MIC: 1 µg/mL (≈ 1.29 µM)
E. faecium GC 2243; Water pre-incubation
  MIC: 4 µg/mL (≈ 5.14 µM)
S. pyogenes GC 4563; Mouse Serum pre-incubation
  MIC: 0.12 µg/mL (≈ 0.154 µM)
S. pyogenes GC 4563; Water pre-incubation
  MIC: 0.25 µg/mL (≈ 0.321 µM)
S. agalactiae GC 4564; Mouse Serum pre-incubation
  MIC: 1 µg/mL (≈ 1.29 µM)
S. agalactiae GC 4564; Water pre-incubation
  MIC: 2 µg/mL (≈ 2.57 µM)
c. albicans GC 3066; Candida albicans, GC3066
  MIC: > 64 µg/mL
c. albicans GC 3066; c. albicans GC 3066, Water pre-incubation
  MIC: >64 UG/ML
E. coli; 20 h, read-out: Range of MIC, E. coli (Mouse Serum)
  MIC: 1 to 2 µg/mL (≈ 1.29 to 2.57 µM)
E. coli; read-out: Minimum inhibitory concentration (MIC), E. coli (mouse serum)
  MIC: 1 to 2 µg/mL (≈ 1.29 to 2.57 µM)
E. coli; read-out: Minimum inhibitory concentration (MIC), E. coli (water)
  MIC: > 64 µg/mL
E. coli; read-out: Range of MIC, E. coli (Water)
  MIC: > 64 µg/mL
Staph.; read-out: Minimum inhibitory concentration (MIC), Staph. (mouse serum)
  MIC: 1 to 4 µg/mL (≈ 1.29 to 5.14 µM)
Staph.; read-out: Minimum inhibitory concentration (MIC), Staph. (water)
  MIC: 4 to 32 µg/mL (≈ 5.14 to 41.1 µM)
Staph.; read-out: Range of MIC, Staph (Mouse Serum)
  MIC: 1 to 4 µg/mL (≈ 1.29 to 5.14 µM)
Staph.; read-out: Range of MIC, Staph (Water)
  MIC: 4 to 32 µg/mL (≈ 5.14 to 41.1 µM)
